This note sets out measurements from patent US8461348B2, “Heterocyclic derivative and use thereof” (Takeda Pharmaceutical Company Limited, priority 2008, dated 2013).

For assay [1], the system named is male SHR. Briefly: Measurement of hypotensive action in vivo in SHR. Details: species or system rat. The settings on record: single oral administration, 5 hr after administration. The method, then: Animal used was male SHR (32- to 40-week-old, SHR/Izm, Japan SLC, Inc.). Two days before drug administration, a cannula (SP10+SP45, Natsume Seisakusho Co., Ltd.) filled with heparin physiological saline (200 U/mL, Ajinomoto Pharma Co., Ltd.) was inserted from the femoral artery under anesthesia with pentobarbital Na (50 mg/kg, i.p., Kyoritsu Seiyaku Corporation) and dwelled. The other end of the cannula was subcutaneously passed and exposed on the back of the neck where it was fixed. After a recovery period, the artery dwelling cannula was connected to a pressure transducer (DTX Plus DT-XXAD, Japan Becton Dickinson) and output on a pen recorder (linear recorder WR3320-4µL, Graphtec Corporation) via a polygraph (AP-641G, Nihon Kohden Co.), and the blood pressure waveform was recorded. The heart rate was calculated from the blood pressure waveform. After stable blood pressure was obtained, a solvent or a drug was orally administered once, and average blood pressure and average heart rate were measured over time. The blood pressure was measured under fasting, and the rats were reared under free ingestion of feed and water except the blood pressure measurement day. The drug was suspended in 0.5% methylcellulose aqueous solution. The administration dose was 2 mL/kg.

The target of assay [2] is T1, Purified sGC (Homo sapiens, UniProt Q02153).
T1 sequence (Q02153 1-619): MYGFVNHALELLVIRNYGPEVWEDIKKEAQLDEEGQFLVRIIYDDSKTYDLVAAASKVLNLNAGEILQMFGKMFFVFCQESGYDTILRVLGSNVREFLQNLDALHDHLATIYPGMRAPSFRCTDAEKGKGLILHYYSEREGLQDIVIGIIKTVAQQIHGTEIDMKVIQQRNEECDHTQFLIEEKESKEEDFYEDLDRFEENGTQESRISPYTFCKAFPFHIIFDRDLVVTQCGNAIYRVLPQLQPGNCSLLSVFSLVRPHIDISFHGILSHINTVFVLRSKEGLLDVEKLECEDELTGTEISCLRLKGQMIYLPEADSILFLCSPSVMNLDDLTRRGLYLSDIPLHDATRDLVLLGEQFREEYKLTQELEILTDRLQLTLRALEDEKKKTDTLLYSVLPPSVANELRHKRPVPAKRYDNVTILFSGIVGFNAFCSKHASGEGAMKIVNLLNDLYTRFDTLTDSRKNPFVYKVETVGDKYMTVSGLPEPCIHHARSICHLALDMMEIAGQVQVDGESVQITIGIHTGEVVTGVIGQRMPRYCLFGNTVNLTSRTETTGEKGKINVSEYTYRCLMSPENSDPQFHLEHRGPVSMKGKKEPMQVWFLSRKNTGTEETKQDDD
T1 sequence (Q02108 1-690 partner): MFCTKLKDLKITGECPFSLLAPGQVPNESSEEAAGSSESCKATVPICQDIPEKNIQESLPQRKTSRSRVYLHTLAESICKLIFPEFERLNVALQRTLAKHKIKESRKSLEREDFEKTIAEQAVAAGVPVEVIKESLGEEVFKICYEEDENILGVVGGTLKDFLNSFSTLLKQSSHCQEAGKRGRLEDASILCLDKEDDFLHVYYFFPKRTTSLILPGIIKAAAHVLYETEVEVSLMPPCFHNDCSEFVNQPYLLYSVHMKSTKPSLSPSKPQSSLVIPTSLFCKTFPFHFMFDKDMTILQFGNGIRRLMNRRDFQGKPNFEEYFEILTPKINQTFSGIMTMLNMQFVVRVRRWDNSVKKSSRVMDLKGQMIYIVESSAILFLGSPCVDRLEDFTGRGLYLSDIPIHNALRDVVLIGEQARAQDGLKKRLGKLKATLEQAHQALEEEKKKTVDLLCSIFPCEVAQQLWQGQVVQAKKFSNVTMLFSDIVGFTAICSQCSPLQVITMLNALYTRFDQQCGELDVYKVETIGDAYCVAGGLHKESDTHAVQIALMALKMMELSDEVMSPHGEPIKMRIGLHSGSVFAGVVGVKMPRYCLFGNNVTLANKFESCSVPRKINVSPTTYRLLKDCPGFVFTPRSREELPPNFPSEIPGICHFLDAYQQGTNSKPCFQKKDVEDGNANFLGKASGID
As to the kind of experiment: Measurement of sGC activation in vitro (cGMP production by purified sGC). It is filed as biochemical. The settings on record: 20 min; test compound diluted to 30 μM, 10 μL/well plus equal volumes of sGC and GTP; 20 min at room temperature; cGMP without compound (1% DMSO) = 100%; read-out: cGMP amount (%) in experiment system. The method, then:
To evaluate sGC activation of each compound, the following in vitro tests were performed.
A test compound was diluted with a reaction buffer (50 mM HEPES, 5 mM MgCl2, 2 mM DTT, 0.5 mM IBMX (isobutylmethylxanthine), 0.01% BSA) to 30 μM (3% DMSO), and dispensed to a 384 well plate (manufactured by REMP) at 10 μL/well. Purified sGC was diluted with the reaction buffer to 240 ng/mL and added to the plate at 10 μL/well. Then, 120 μM GTP prepared with the reaction buffer was added to the reaction plate at 10 μL/well to initiate an enzyme reaction. After stirring at room temperature for 20 min to allow reaction, 125 mM Na2CO3 was added at 15 μL/well to quench the reaction. Thereafter, 125 mM Zn Acetate (zinc acetate) was added at 15 μL/well to allow precipitation of unreacted GTP. Then, the amount of the resulting cGMP contained in the supernatant was quantified using a CatchPoint cGMP assay kit (molecular devices). The method followed the protocol attached to the assay kit. For detection, Super Signal ELISA Femto (Thermo) was used, and the amount of luminescence was measured with ARVO (Perkinelmer). The sGC activity with addition of the compound was calculated using the amount of cGMP produced without addition of the compound (in the presence of 1% DMSO) as 100%.

SMILES strings stand for the structures.

For `O=C(O)c1cnn(Cc2nc(-c3cccc(C(F)(F)F)c3F)cs2)c1` [Example 52, 1-({4-[2-fluoro-3-(trifluoromethyl)phenyl]-1,3-thiazol-2-yl}methyl)-1H-pyrazole-4-carboxylic acid], in assay [1] (30 mg/kg), the “hypotension after 5 hr from the administration” value (“hypotension after 5 hr” for short) is 29.4 mmHg. For the same compound, in assay [2], the activity at 10 µM was above 1000%.

With `Cc1sc(-c2cc(Cl)cc(C(F)(F)F)c2)nc1Cn1cc(C(=O)O)cn1` [Example 83, 1-({2-[3-chloro-5-(trifluoromethyl)phenyl]-5-methyl-1,3-thiazol-4-yl}methyl)-1H-pyrazole-4-carboxylic acid], the “hypotension after 5 hr” value in assay [1] (10 mg/kg) is reported as 14.5 mmHg. Besides, the activity at 10 µM in assay [2] was above 1000%. For `O=C(O)c1ccc(Cc2nc(-c3cccc(C(F)(F)F)c3)cs2)cc1` [Example 178, 4-({4-[3-(trifluoromethyl)phenyl]-1,3-thiazol-2-yl}methyl)benzoic acid], the “hypotension after 5 hr” value in assay [1] (30 mg/kg) is given as 15.8 mmHg. Moreover, the activity at 10 µM in assay [2] is above 1000%. Take `O=C(O)c1cnn(Cc2nc(-c3cccc(C(F)(F)F)c3)cs2)c1` [Example 1, 1-({4-[3-(trifluoromethyl)phenyl]-1,3-thiazol-2-yl}methyl)-1H-pyrazole-4-carboxylic acid]: the “hypotension after 5 hr” value in assay [1] (30 mg/kg) was 15.5 mmHg. Besides, in assay [2], the activity at 10 µM was above 1000%. Take `O=C(O)c1cnn(Cc2csc(-c3cccc(C(F)(F)F)c3)n2)c1` [Example 21, 1-({2-[3-(trifluoromethyl)phenyl]-1,3-thiazol-4-yl}methyl)-1H-pyrazole-4-carboxylic acid]: the activity at 10 µM in assay [2] was above 1000%. In the case of `O=C(Nc1cccc(Cl)c1)c1csc(-n2ncc(C(=O)O)c2C(F)(F)F)n1` [Ref. Ex. 20, 1-{4-[(3-chlorophenyl)carbamoyl]-1,3-thiazol-2-yl}-5-(trifluoromethyl)-1H-pyrazole-4-carboxylic acid], the activity at 10 µM in assay [2] is above 1000%. With `Cc1sc(-c2cccc(C(F)(F)F)c2F)nc1Cn1cc(C(=O)O)cn1` [Example 80, 1-({2-[2-fluoro-3-(trifluoromethyl)phenyl]-5-methyl-1,3-thiazol-4-yl}methyl)-1H-pyrazole-4-carboxylic acid], in assay [1] (10 mg/kg), the “hypotension after 5 hr” value stood at 14.7 mmHg. In addition, the activity at 10 µM in assay [2] is above 1000%.

In the case of `O=C(O)c1cnn(-c2nc(-c3ccc(Cl)s3)cs2)c1C(F)(F)F` [Ref. Ex. 3, 1-[4-(5-chlorothiophen-2-yl)-1,3-thiazol-2-yl]-5-(trifluoromethyl)-1H-pyrazole-4-carboxylic acid], the activity at 10 µM in assay [2] was above 1000%. As to `O=C(O)c1cnn(-c2nc(-c3ccc(Cl)c(Cl)c3)cs2)c1` [Ref. Ex. 17, 1-[4-(3,4-dichlorophenyl)-1,3-thiazol-2-yl]-1H-pyrazole-4-carboxylic acid], the activity at 10 µM in assay [2] is above 1000%. Consider `O=C(O)c1ccc(Cc2nc(-c3ccc(Cl)c(Cl)c3)cs2)cc1` [Example 179, 4-{[4-(3,4-dichlorophenyl)-1,3-thiazol-2-yl]methyl}benzoic acid], for which the activity at 10 µM in assay [2] is above 1000%.
